Experimental data reported in PubChem BioAssay (NCI).
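Step 1: Grow cells in 96-well plates. Step 2: Expose to compound for 48 hours at 5 concentrations. Step 3: Interpolate endpoints linearly; if unreached, use highest concentration. TGI: concentration producing complete growth inhibition.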

Legend:
Assay in all cases: NCI tumour cell line growth inhibition, 48 h
OVCAR-8 ovarian = test system: OVCAR-8 ovarian
SF-268 CNS = test system: SF-268 CNS
A498 renal = test system: A498 renal
OVCAR-3 ovarian = test system: OVCAR-3 ovarian
NCI-H522 lung = test system: NCI-H522 lung
MDA-N = test system: MDA-N
M14 melanoma = test system: M14 melanoma
HS 578T breast = test system: HS 578T breast
ACHN renal = test system: ACHN renal
TK-10 renal = test system: TK-10 renal
UACC-62 melanoma = test system: UACC-62 melanoma
K-562 leukemia = test system: K-562 leukemia
HT29 colon = test system: HT29 colon
SK-MEL-2 melanoma = test system: SK-MEL-2 melanoma
EKVX NSCLC = test system: EKVX NSCLC
T-47D breast = test system: T-47D breast
UACC-257 melanoma = test system: UACC-257 melanoma
DU-145 prostate = test system: DU-145 prostate
HCT-15 colon = test system: HCT-15 colon
MOLT-4 leukemia = test system: MOLT-4 leukemia
SNB-19 CNS = test system: SNB-19 CNS
UO-31 renal = test system: UO-31 renal
KM12 colon = test system: KM12 colon
SW-620 colon = test system: SW-620 colon
CAKI-1 renal = test system: CAKI-1 renal
HOP-92 NSCLC = test system: HOP-92 NSCLC
NCI-H23 lung = test system: NCI-H23 lung
CCRF-CEM leukemia = test system: CCRF-CEM leukemia
HOP-62 NSCLC = test system: HOP-62 NSCLC
MDA-MB-231 breast = test system: MDA-MB-231 breast
HCT-116 colon = test system: HCT-116 colon
U251 CNS = test system: U251 CNS
SF-539 CNS = test system: SF-539 CNS
OVCAR-5 ovarian = test system: OVCAR-5 ovarian
OVCAR-4 ovarian = test system: OVCAR-4 ovarian
NCI-H226 lung = test system: NCI-H226 lung
PC-3 prostate = test system: PC-3 prostate
SK-MEL-5 melanoma = test system: SK-MEL-5 melanoma
NCI/ADR-RES ovarian = test system: NCI/ADR-RES ovarian
MDA-MB-435 = test system: MDA-MB-435
A549 NSCLC = test system: A549 NSCLC
SN12C renal = test system: SN12C renal
BT-549 breast = test system: BT-549 breast
786-0 renal = test system: 786-0 renal
COLO 205 colon = test system: COLO 205 colon
SF-295 CNS = test system: SF-295 CNS
MCF7 breast = test system: MCF7 breast
SK-MEL-28 melanoma = test system: SK-MEL-28 melanoma
HCC-2998 colon = test system: HCC-2998 colon
SK-OV-3 ovarian = test system: SK-OV-3 ovarian
IGROV1 ovarian = test system: IGROV1 ovarian
HL-60(TB) leukemia = test system: HL-60(TB) leukemia
RXF 393 renal = test system: RXF 393 renal
NCI-H460 lung = test system: NCI-H460 lung
LOX IMVI melanoma = test system: LOX IMVI melanoma
SNB-75 CNS = test system: SNB-75 CNS
RPMI-8226 leukemia = test system: RPMI-8226 leukemia
MALME-3M melanoma = test system: MALME-3M melanoma

With `CN1c2ccccc2S(=O)(=O)n2c(COc3ccccc3)nnc21` the TGI (OVCAR-8 ovarian) was greater than 100 µM, the TGI (SF-268 CNS) was greater than 100 µM and the TGI (A498 renal) was greater than 100 µM. For the same compound, the TGI (OVCAR-3 ovarian) was greater than 100 µM, the TGI (NCI-H522 lung) was greater than 100 µM and the TGI (MDA-N) was greater than 100 µM. It also gave a TGI (M14 melanoma) greater than 100 µM, a TGI (HS 578T breast) greater than 100 µM and a TGI (ACHN renal) greater than 100 µM. For the same compound, the TGI (TK-10 renal) was greater than 100 µM, the TGI (UACC-62 melanoma) was greater than 100 µM and the TGI (K-562 leukemia) was greater than 100 µM. The TGI (HT29 colon) was greater than 100 µM, the TGI (SK-MEL-2 melanoma) was greater than 100 µM and the TGI (EKVX NSCLC) was greater than 100 µM. The TGI (T-47D breast) was greater than 100 µM, the TGI (UACC-257 melanoma) was greater than 100 µM and the TGI (DU-145 prostate) was greater than 100 µM. The TGI (HCT-15 colon) was greater than 100 µM, the TGI (MOLT-4 leukemia) was greater than 100 µM and the TGI (SNB-19 CNS) was greater than 100 µM. For the same compound, the TGI (UO-31 renal) was greater than 100 µM, the TGI (KM12 colon) was greater than 100 µM and the TGI (SW-620 colon) was greater than 100 µM. For the same compound, the TGI (CAKI-1 renal) was greater than 100 µM, the TGI (HOP-92 NSCLC) was greater than 100 µM and the TGI (NCI-H23 lung) was greater than 100 µM. It also gave a TGI (CCRF-CEM leukemia) greater than 100 µM, a TGI (HOP-62 NSCLC) greater than 100 µM and a TGI (MDA-MB-231 breast) greater than 100 µM. The TGI (HCT-116 colon) was greater than 100 µM, the TGI (U251 CNS) was greater than 100 µM and the TGI (SF-539 CNS) was greater than 100 µM. For the same compound, the TGI (OVCAR-5 ovarian) was greater than 100 µM, the TGI (OVCAR-4 ovarian) was greater than 100 µM and the TGI (NCI-H226 lung) was greater than 100 µM. For the same compound, the TGI (PC-3 prostate) was greater than 100 µM, the TGI (SK-MEL-5 melanoma) was greater than 100 µM and the TGI (NCI/ADR-RES ovarian) was greater than 100 µM. The TGI (MDA-MB-435) was greater than 100 µM, the TGI (A549 NSCLC) was greater than 100 µM and the TGI (SN12C renal) was greater than 100 µM. For the same compound, the TGI (BT-549 breast) was greater than 100 µM, the TGI (786-0 renal) was greater than 100 µM and the TGI (COLO 205 colon) was greater than 100 µM. The TGI (SF-295 CNS) was greater than 100 µM, the TGI (MCF7 breast) was greater than 100 µM and the TGI (SK-MEL-28 melanoma) was greater than 100 µM. It also gave a TGI (HCC-2998 colon) greater than 100 µM, a TGI (SK-OV-3 ovarian) greater than 100 µM and a TGI (IGROV1 ovarian) greater than 100 µM. For the same compound, the TGI (HL-60(TB) leukemia) was greater than 100 µM, the TGI (RXF 393 renal) was greater than 100 µM and the TGI (NCI-H460 lung) was greater than 100 µM. It also gave a TGI (LOX IMVI melanoma) greater than 100 µM.

For `C=CC(=C)CCC(Br)C(C)(C)Cl` (stereo not given), the TGI (OVCAR-8 ovarian) was greater than 100 µM, the TGI (SF-268 CNS) was greater than 100 µM and the TGI (OVCAR-3 ovarian) was greater than 100 µM. The TGI (NCI-H522 lung) was 54.2 µM, the TGI (MDA-N) was greater than 100 µM and the TGI (SNB-75 CNS) was greater than 100 µM. The TGI (M14 melanoma) was greater than 100 µM, the TGI (HS 578T breast) was greater than 100 µM and the TGI (ACHN renal) was greater than 100 µM. The TGI (TK-10 renal) was greater than 100 µM, the TGI (UACC-62 melanoma) was greater than 100 µM and the TGI (K-562 leukemia) was greater than 100 µM. For the same compound, the TGI (HT29 colon) was greater than 100 µM, the TGI (SK-MEL-2 melanoma) was greater than 100 µM and the TGI (RPMI-8226 leukemia) was greater than 100 µM. It also gave a TGI (EKVX NSCLC) greater than 100 µM, a TGI (T-47D breast) greater than 100 µM and a TGI (UACC-257 melanoma) greater than 100 µM. It also gave a TGI (DU-145 prostate) greater than 100 µM, a TGI (HCT-15 colon) greater than 100 µM and a TGI (MOLT-4 leukemia) greater than 100 µM. The TGI (SNB-19 CNS) was greater than 100 µM, the TGI (UO-31 renal) was greater than 100 µM and the TGI (KM12 colon) was greater than 100 µM. The TGI (SW-620 colon) was greater than 100 µM, the TGI (HOP-92 NSCLC) was greater than 100 µM and the TGI (NCI-H23 lung) was greater than 100 µM. The TGI (CCRF-CEM leukemia) was greater than 100 µM, the TGI (HOP-62 NSCLC) was greater than 100 µM and the TGI (MDA-MB-231 breast) was greater than 100 µM. For the same compound, the TGI (HCT-116 colon) was greater than 100 µM, the TGI (U251 CNS) was greater than 100 µM and the TGI (SF-539 CNS) was greater than 100 µM. For the same compound, the TGI (OVCAR-5 ovarian) was greater than 100 µM, the TGI (OVCAR-4 ovarian) was greater than 100 µM and the TGI (NCI-H226 lung) was greater than 100 µM. It also gave a TGI (PC-3 prostate) greater than 100 µM, a TGI (SK-MEL-5 melanoma) greater than 100 µM and a TGI (NCI/ADR-RES ovarian) greater than 100 µM. The TGI (MDA-MB-435) was greater than 100 µM, the TGI (A549 NSCLC) was greater than 100 µM and the TGI (SN12C renal) was greater than 100 µM. For the same compound, the TGI (BT-549 breast) was greater than 100 µM, the TGI (786-0 renal) was greater than 100 µM and the TGI (COLO 205 colon) was greater than 100 µM. It also gave a TGI (SF-295 CNS) greater than 100 µM, a TGI (MCF7 breast) greater than 100 µM and a TGI (SK-MEL-28 melanoma) greater than 100 µM. It also gave a TGI (HCC-2998 colon) greater than 100 µM, a TGI (MALME-3M melanoma) greater than 100 µM and a TGI (SK-OV-3 ovarian) greater than 100 µM. It also gave a TGI (IGROV1 ovarian) greater than 100 µM, a TGI (HL-60(TB) leukemia) greater than 100 µM and a TGI (RXF 393 renal) greater than 100 µM. It also gave a TGI (NCI-H460 lung) greater than 100 µM.
